Entries after “also recorded” stand apart in the source; their conditions may differ.
System: ATG5-deficient Dendra2-LC3 HEK cells
Test: Autophagic flux in Dendra2-LC3 HEK cells with ATG5 siRNA knockdown
Assay type: cell-based, human
Conditions: 20 nM ATG5 siRNA two days prior to imaging, red and green channels
Protocol: FIG. 6, panels a-c. Evaluation of autophagy-modifying compounds in ATG5-deficient cells. […] IB, immunoblot.
FIGS. 8A-E. Time dependent decay of Dendra2-LC3 as an assay of autophagic flux. (FIG. 8A) Dendra2-LC3 reporter cells were imaged prior to photoconversion to measure background TRITC intensity. Immediately following photoconversion with a 5 second pulse of […] light, cells were treated with DMSO, 1 uM Torin1, or 10 nM Bafilomycin-A1 and then were subsequently imaged at the indicated time points. Images are psuedocolored to better highlight intensity differences. (FIGS. 8B-E) Time dependent changes in photoconverted Dendra2-LC3 fluorescence in the TRITC (FIGS. 8B, D) and GFP (FIGS. 8C, E) channels. Gray boxes represent the pre and post-photoconversion time points. […]
The possibility that cell death and toxicity mimics the reduction in GFP intensity that would otherwise denote autophagy induction was also addressed. To avoid confounding from toxicity, the area occupied by cells in each image is calculated using ImageJ software and used as a proxy for cell number; since all wells received the same number of cells, >25% reductions in the area occupied by cells at the end of the experiment indicates toxicity. The formation of Dendra2-LC3 puncta in each condition is scored simultaneously using the ‘analyze particles’ function in ImageJ. […]

## CCC(=O)N1CCN(c2ccc(-n3c(=O)ccc4cnc5ccc(-c6cnc7ccccc7c6)cc5c43)cc2C(F)(F)F)CC1 [Torin1, torin1]
  Effect of ATG5 knockdown on drug-induced autophagic flux: attenuates the effects
Listed as torin1
  Effect of ATG5 knockdown on drug-induced autophagic flux: attenuates the ability of torin1 to induce autophagic flux; also recorded: mitigated the autophagy-inducing effects
